Experimental data taken from ChEMBL document CHEMBL1649532, “Trypanocidal activity of 8-methyl-5'-{[(Z)-4-aminobut-2-enyl]-(methylamino)}adenosine (Genz-644131), an adenosylmethionine decarboxylase inhibitor” (Antimicrob Agents Chemother, 2009).
Values after ≈ are worked out from the molar mass of the structure shown. Active and inactive are the calls of the source. The rule behind the calls is not given here.

Legend:
[1] = test system: Trypanosoma brucei brucei; test: Trypanocidal activity against Trypanosoma brucei brucei EATRO infected in mouse assessed as mean survival time at 25 mg/kg, ip BID for 4 days; type: functional; conditions: route intraperitoneal
[2] = test system: Trypanosoma brucei brucei; test: Trypanocidal activity against Trypanosoma brucei brucei 667 infected in mouse assessed as average day of relapse of trypanosomal infection at 25 mg/kg, ip BID for 14 days; type: functional; conditions: route intraperitoneal
[3] = test system: Trypanosoma brucei rhodesiense; test: Trypanocidal activity against Trypanosoma brucei rhodesiense KETRI2002 infected in mouse assessed as average survival time at 25 mg/kg, ip QD administered 24 hrs postinfection; type: functional; conditions: route intraperitoneal
[4] = test system: Trypanosoma brucei rhodesiense; test: Trypanocidal activity against Trypanosoma brucei rhodesiense KETRI243 infected in mouse assessed as protection against trypanosomal infection at 50 mg/kg, ip QD administered 24 hrs postinfection; type: functional, organism-based; set-up: dose 50 mg/kg
[5] = test system: Trypanosoma brucei brucei; test: Trypanocidal activity against Trypanosoma brucei brucei EATRO infected in mouse assessed as mean survival time at 50 mg/kg, ip BID for 4 days; type: functional; conditions: route intraperitoneal
[6] = test system: Trypanosoma brucei rhodesiense; test: Trypanocidal activity against Trypanosoma brucei rhodesiense KETRI1992 infected in mouse assessed as average survival time at 25 mg/kg, ip BID administered 24 hrs postinfection; type: functional; conditions: route intraperitoneal
[7] = test system: Trypanosoma brucei rhodesiense; test: Trypanocidal activity against Trypanosoma brucei rhodesiense KETRI243 infected in mouse assessed as average survival time at 10 mg/kg, ip QD administered 24 hrs postinfection; type: functional; conditions: route intraperitoneal
[8] = test system: Trypanosoma brucei brucei; test: Trypanocidal activity against Trypanosoma brucei brucei EATRO infected in mouse assessed as mean survival time at 25 mg/kg, ip QD for 4 days; type: functional; conditions: route intraperitoneal
[9] = test system: Trypanosoma brucei rhodesiense; test: Trypanocidal activity against Trypanosoma brucei rhodesiense KETRI1992 infected in mouse assessed as average survival time at 10 mg/kg, ip QD administered 24 hrs postinfection; type: functional; conditions: route intraperitoneal
[10] = test system: Trypanosoma brucei brucei; test: Trypanocidal activity against Trypanosoma brucei brucei 667 infected in mouse assessed as average day of relapse of trypanosomal infection at 50 mg/kg, ip BID for 14 days; type: functional; conditions: route intraperitoneal
[11] = test system: Trypanosoma brucei rhodesiense; test: Trypanocidal activity against Trypanosoma brucei rhodesiense KETRI243 infected in mouse assessed as protection against trypanosomal infection at 25 mg/kg, ip QD administered 24 hrs postinfection; type: functional, organism-based; set-up: dose 25 mg/kg
[12] = test system: Trypanosoma brucei rhodesiense; test: Ratio of Kinact to Kiapp for Trypanosoma brucei rhodesiense AdoMetDC
[13] = test system: Trypanosoma brucei rhodesiense; test: Trypanocidal activity against Trypanosoma brucei rhodesiense KETRI1992 infected in mouse assessed as protection against trypanosomal infection at 25 mg/kg, ip QD administered 24 hrs postinfection; type: functional, organism-based; set-up: dose 25 mg/kg
[14] = test system: Trypanosoma brucei rhodesiense; test: Trypanocidal activity against Trypanosoma brucei rhodesiense KETRI243 infected in mouse assessed as average survival time at 10 mg/kg, ip BID administered 24 hrs postinfection; type: functional; conditions: route intraperitoneal
[15] = test system: Trypanosoma brucei rhodesiense; test: Trypanocidal activity against Trypanosoma brucei rhodesiense KETRI2002 infected in mouse assessed as average survival time at 10 mg/kg, ip BID administered 24 hrs postinfection; type: functional; conditions: route intraperitoneal
[16] = test system: Trypanosoma brucei brucei; test: Trypanocidal activity against Trypanosoma brucei brucei 667 infected in mouse assessed as average day of relapse of trypanosomal infection at 10 mg/kg, ip BID for 4 days; type: functional; conditions: route intraperitoneal
[17] = test system: Trypanosoma brucei brucei; test: Trypanocidal activity against Trypanosoma brucei brucei 667 infected in mouse assessed as average day of relapse of trypanosomal infection at 25 mg/kg, ip BID for 7 days; type: functional; conditions: route intraperitoneal
[18] = test system: Trypanosoma brucei brucei; test: Trypanocidal activity against Trypanosoma brucei brucei EATRO infected in mouse assessed as mean survival time at 10 mg/kg, ip QD for 4 days; type: functional; conditions: route intraperitoneal
[19] = test system: Trypanosoma brucei brucei; test: Trypanocidal activity against Trypanosoma brucei brucei 667 infected in mouse assessed as average day of relapse of trypanosomal infection at 50 mg/kg, ip BID for 7 days; type: functional; conditions: route intraperitoneal
[20] = test system: Trypanosoma brucei rhodesiense; test: Trypanocidal activity against Trypanosoma brucei rhodesiense KETRI243 infected in mouse assessed as average survival time at 25 mg/kg, ip BID administered 24 hrs postinfection; type: functional; conditions: route intraperitoneal
[21] = test system: Trypanosoma brucei brucei; test: Trypanocidal activity against Trypanosoma brucei brucei EATRO infected in mouse assessed as mean survival time at 2 mg/kg, ip BID for 4 days; type: functional; conditions: route intraperitoneal
[22] = test system: Trypanosoma brucei brucei; test: Trypanocidal activity against Trypanosoma brucei brucei EATRO infected in mouse assessed as protection against trypanosomal infection at 25 mg/kg, ip QD for 4 days; type: functional, organism-based; set-up: dose 25 mg/kg
[23] = test system: Trypanosoma brucei brucei; test: Trypanocidal activity against Trypanosoma brucei brucei EATRO infected in mouse assessed as protection against trypanosomal infection at 2 mg/kg, ip BID for 4 days; type: functional, organism-based; set-up: dose 2 mg/kg
[24] = test system: Trypanosoma brucei brucei; test: Trypanocidal activity against Trypanosoma brucei brucei 667 infected in mouse assessed as average day of relapse of trypanosomal infection at 10 mg/kg, ip BID for 21 days; type: functional; conditions: route intraperitoneal
[25] = test system: Trypanosoma brucei rhodesiense; test: Trypanocidal activity against Trypanosoma brucei rhodesiense KETRI243 after 48 hrs; type: functional, organism-based; conditions: KETRI243, 48 h
[26] = test system: Trypanosoma brucei brucei; test: Trypanocidal activity against Trypanosoma brucei brucei EATRO infected in mouse assessed as mean survival time at 2.5 mg/kg, ip BID for 4 days; type: functional; conditions: route intraperitoneal
[27] = test system: Trypanosoma brucei brucei; test: Trypanocidal activity against Trypanosoma brucei brucei 667 infected in mouse assessed as average day of relapse of trypanosomal infection at 10 mg/kg, ip BID for 7 days; type: functional; conditions: route intraperitoneal
[28] = test system: Trypanosoma brucei brucei; test: Trypanocidal activity against Trypanosoma brucei brucei EATRO after 48 hrs; type: functional, organism-based
[29] = test system: Trypanosoma brucei brucei; test: Trypanocidal activity against Trypanosoma brucei brucei EATRO infected in mouse assessed as protection against trypanosomal infection at 2 mg/kg, ip QD for 4 days; type: functional, organism-based; set-up: dose 2 mg/kg
[30] = test system: Trypanosoma brucei brucei; test: Trypanocidal activity against Trypanosoma brucei brucei EATRO infected in mouse assessed as protection against trypanosomal infection at 2.5 mg/kg, ip BID for 4 days; type: functional, organism-based; set-up: dose 2.5 mg/kg
[31] = test system: Trypanosoma brucei brucei; test: Trypanocidal activity against Trypanosoma brucei brucei EATRO infected in mouse assessed as mean survival time at 5 mg/kg, ip BID for 4 days; type: functional; conditions: route intraperitoneal
[32] = test system: Trypanosoma brucei brucei; test: Trypanocidal activity against Trypanosoma brucei brucei EATRO infected in mouse assessed as protection against trypanosomal infection at 5 mg/kg, ip BID for 4 days; type: functional, organism-based; set-up: dose 5 mg/kg
[33] = test system: Trypanosoma brucei rhodesiense; test: Trypanocidal activity against Trypanosoma brucei rhodesiense KETRI2002 infected in mouse assessed as cure rate at 50 mg/kg, ip QD administered 24 hrs postinfection; type: functional; conditions: route intraperitoneal

Cc1nc2c(N)ncnc2n1[C@@H]1O[C@H](CN(C)C/C=C\CN)[C@@H](O)[C@H]1O
MST [1]: >35 days | MST [2]: 70.3 days | MST [3]: 20 days | Activity [4]: inactive | MST [5]: >35 days | MST [6]: 23 days | MST [7]: 13.2 days | MST [8]: >35 days | MST [9]: 16.6 days | MST [10]: 63.4 days | Activity [11]: inactive | Activity [12]: 7.8 min⁻¹ M⁻¹ | Activity [13]: inactive | MST [14]: 14.8 days | MST [15]: 21.5 days | MST [16]: 36 days | MST [17]: 61.7 days | MST [18]: >35 days | MST [19]: 59 days | MST [20]: 18.75 days | MST [21]: >35 days | Activity [22]: Active | Activity [23]: Active | MST [24]: 61.8 days | IC50 [25]: 3.75 ng/mL (≈ 10.3 nM) | MST [26]: >35 days | MST [27]: 53 days | IC50 [28]: 0.58 ng/mL (≈ 1.6 nM) | Activity [29]: Active | Activity [30]: Active | MST [31]: >35 days | Activity [32]: Active | Activity [33]: 80%
